ChEMBL document CHEMBL6114980, “Single or double lipid-modified ultra-short antimicrobial peptides for treating infections caused by resistant bacteria” (Eur J Med Chem, 2025)
Activity calls are given as the source filed them. The rule behind the calls is not given here. Peptide text beside a SMILES is read from it. * marks the point of attachment. Lauroyl = CCCCCCCCCCCC(=O)*; Octanoyl = CCCCCCCC(=O)*

Columns and labels:
[1] = test system: Staphylococcus aureus; test: Antibacterial activity against Staphylococcus aureus assessed as reduction in survival bacterial growth in presence of <= 2 ug/ml trypsin measured after1 hr by absorbance based analysis; format: functional, organism-based; settings: time 1.0 hrs
[2] = test system: Escherichia coli; test: Antibacterial activity against Escherichia coli assessed as reduction in survival bacterial growth in presence <=0.2 ug/ml of trypsin measured after1 hr by absorbance based analysis; format: functional, organism-based; settings: time 1.0 hrs
[3] = test system: Escherichia coli; test: Antibacterial activity against Escherichia coli assessed as reduction in survival bacterial growth in presence of NaCl measured after 18 to 24 hrs (reference value: 8 microM); format: functional; settings: time 18-24 hrs
[4] = test system: Escherichia coli; test: Antibacterial activity against Escherichia coli assessed as reduction in survival bacterial growth in presence of MgCl2 measured after 18 to 24 hrs (reference value: 8 microM); format: functional; settings: time 18-24 hrs
[5] = test system: Staphylococcus aureus; test: Antibacterial activity against Staphylococcus aureus assessed as reduction in survival bacterial growth in presence of MgCl2 measured after 18 to 24 hrs (reference value: 4 microM); format: functional; settings: time 18-24 hrs
[6] = test system: Staphylococcus aureus; test: Antibacterial activity against Staphylococcus aureus assessed as reduction in survival bacterial growth in presence of ZnCl2 measured after 18 to 24 hrs (reference value: 4 microM); format: functional; settings: time 18-24 hrs
[7] = test system: Staphylococcus aureus; test: Antibacterial activity against Staphylococcus aureus assessed as reduction in survival bacterial growth in presence of KCl measured after 18 to 24 hrs (reference value: 4 microM); format: functional; settings: time 18-24 hrs
[8] = test system: Staphylococcus aureus; test: Antibacterial activity against Staphylococcus aureus assessed as reduction in survival bacterial growth in presence of FeCl3 measured after 18 to 24 hrs (reference value: 4 microM); format: functional; settings: time 18-24 hrs
[9] = test system: Staphylococcus aureus; test: Induction of morphological changes in Staphylococcus aureus assessed as cell adhesion at 2 times MIC measured after 120 mins by SEM analysis; format: functional, organism-based
[10] = test system: Cell membrane; test: Induction of outer membrane permeabilization in Escherichia coli assessed as increase in fluorescence intensity at 0.5 times MIC measured for 10 mins by fluorescence based NPN uptake assay
[11] = test system: Staphylococcus aureus; test: Antibacterial activity against Staphylococcus aureus 25923 at sub-MIC concentration measured after 15 passages in presence of rifampin; format: functional, organism-based
[12] = test system: Escherichia coli; test: Antibacterial activity against Escherichia coli 25922 at sub-MIC concentration measured after 15 passages in presence of rifampin; format: functional, organism-based
[13] = test system: Staphylococcus aureus; test: Additive antibacterial activity against Staphylococcus aureus 25923 assessed as fractional inhibitory in presence of cephalothin by checker board assay; format: functional
[14] = test system: Staphylococcus aureus; test: Synergistic antibacterial activity against methicillin-resistant Staphylococcus aureus assessed as fractional inhibitory in presence of streptomycin by checker board assay; format: functional
[15] = Acute toxicity in male BALB/c mouse assessed effect on edema in spleen at 100 to 130 mg/kg, ip measured after 7 days by H and E staining based analysis; format: organism-based; settings: in vivo, 168 h, dose 100-130 mg/kg, time 7 day
[16] = Acute toxicity in male BALB/c mouse assessed effect on edema in heart at 100 to 130 mg/kg, ip measured after 7 days by H and E staining based analysis; format: organism-based; settings: in vivo, 168 h, dose 100-130 mg/kg, time 7 day
[17] = Acute toxicity in male BALB/c mouse assessed increase in inflammatory cell infiltration at 100 to 130 mg/kg, ip measured after 7 days by H and E staining based analysis; format: organism-based; settings: in vivo, 168 h, dose 100-130 mg/kg, time 7 day
[18] = Acute toxicity in male BALB/c mouse assessed increase in interstitial space at 100 to 130 mg/kg, ip measured after 7 days by H and E staining based analysis; format: organism-based; settings: in vivo, 168 h, dose 100-130 mg/kg, time 7 day
[19] = Acute toxicity in male BALB/c mouse assessed distorted alveolar morphology at 100 to 130 mg/kg, ip measured after 7 days by H and E staining based analysis; format: organism-based; settings: in vivo, 168 h, dose 100-130 mg/kg, time 7 day
[20] = Acute toxicity in male BALB/c mouse assessed congestion at 100 to 130 mg/kg, ip measured after 7 days by H and E staining based analysis; format: organism-based; settings: in vivo, 168 h, dose 100-130 mg/kg, time 7 day
[21] = test system: Escherichia coli; test: Antibacterial activity against Escherichia coli assessed as reduction in survival bacterial growth in presence <=0.02 ug/ml of trypsin measured after1 hr by absorbance based analysis; format: functional, organism-based; settings: time 1.0 hrs
[22] = test system: Staphylococcus aureus; test: Antibacterial activity against Staphylococcus aureus assessed as reduction in survival bacterial growth in presence of NaCl measured after 18 to 24 hrs (reference value: 8 microM); format: functional; settings: time 18-24 hrs
[23] = test system: Staphylococcus aureus; test: Antibacterial activity against Staphylococcus aureus assessed as reduction in survival bacterial growth in presence of Mgcl2 measured after 18 to 24 hrs (reference value: 8 microM); format: functional; settings: time 18-24 hrs
[24] = test system: Staphylococcus aureus; test: Antibacterial activity against Staphylococcus aureus assessed as reduction in survival bacterial growth in presence of ZnCl2 measured after 18 to 24 hrs (reference value: 8 microM); format: functional; settings: time 18-24 hrs
[25] = test system: Cell membrane; test: Induction of outer membrane permeabilization in Escherichia coli assessed as increase in fluorescence intensity at 1 times MIC measured for 10 mins by fluorescence based NPN uptake assay
[26] = test system: Cell membrane; test: Induction of cytoplasmic membrane depolarization in Escherichia coli assessed as increase in fluorescence intensity at 0.5 to 2 times MIC measured for 10 mins by DiSC3-5 dye based fluorescence assay
[27] = test system: Cell membrane; test: Induction of cytoplasmic membrane depolarization in Staphylococcus aureus assessed as increase in fluorescence intensity at 0.5 to 4 times MIC measured for 1 mins by DiSC3-5 dye based fluorescence assay
[28] = test system: Staphylococcus aureus; test: Synergistic antibacterial activity against methicillin-resistant Staphylococcus aureus 113 assessed as fractional inhibitory in presence of polymyxin B by checker board assay; format: functional
[29] = test system: Staphylococcus aureus; test: Synergistic antibacterial activity against Staphylococcus aureus 25923 assessed as fractional inhibitory in presence of cephalothin by checker board assay; format: functional
[30] = test system: Staphylococcus aureus; test: Additive antibacterial activity against methicillin-resistant Staphylococcus aureus assessed as fractional inhibitory in presence of streptomycin by checker board assay; format: functional
[31] = Acute toxicity in male BALB/c mouse assessed partial hepatocyte necrosis at 100 to 130 mg/kg, ip measured after 7 days by H and E staining based analysis; format: organism-based; settings: in vivo, 168 h, dose 100-130 mg/kg, time 7 day
[32] = Acute toxicity in male BALB/c mouse assessed inflammatory cell infiltration in kidney at 100 to 130 mg/kg, ip measured after 7 days by H and E staining based analysis; format: organism-based; settings: in vivo, 168 h, dose 100-130 mg/kg, time 7 day
[33] = Acute toxicity in male BALB/c mouse assessed inflammatory cell infiltration in lung at 100 to 130 mg/kg, ip measured after 7 days by H and E staining based analysis; format: organism-based; settings: in vivo, 168 h, dose 100-130 mg/kg, time 7 day
[34] = Acute toxicity in male BALB/c mouse assessed inflammatory cell infiltration in spleen at 100 to 130 mg/kg, ip measured after 7 days by H and E staining based analysis; format: organism-based; settings: in vivo, 168 h, dose 100-130 mg/kg, time 7 day

## CCCCCCCCCCCC(=O)N[C@@H](CCCCN)C(=O)N[C@@H](CCCCN)C(=O)N[C@@H](Cc1c[nH]c2ccccc12)C(=O)N[C@@H](Cc1c[nH]c2ccccc12)C(N)=O (Lauroyl-KKWW-NH2)
[1]
  Activity: Active
[2]
  Activity: Active
[3]
  MIC: 8 µM
[4]
  MIC: 8 µM
[5]
  MIC: 4 µM
[6]
  MIC: 4 µM
[7]
  MIC: 4 µM
[8]
  MIC: 2 µM
[9]
  Activity: Active
[10]
  Activity: Active
[11]
  Activity: Active
[12]
  Activity: Active
[13]
  fractional inhibitory concentration index (FICI): 0.562
[14]
  fractional inhibitory concentration index (FICI): 0.375
[15]
  Activity: Non-toxic
[16]
  Activity: Non-toxic
[17]
  Activity: Toxic
[18]
  Activity: Toxic
[19]
  Activity: Toxic
[20]
  Activity: Toxic

## CCCCCCCC(=O)NCCCC[C@H](NC(=O)CCCCCCC)C(=O)N[C@@H](CCCCN)C(=O)N[C@@H](CCCCN)C(=O)N[C@@H](Cc1c[nH]c2ccccc12)C(=O)N[C@@H](Cc1c[nH]c2ccccc12)C(N)=O (Octanoyl-K(Octanoyl)KKWW-NH2)
[21]
  Activity: Active
[22]
  MIC: 8 µM
[23]
  MIC: 8 µM
[24]
  MIC: 8 µM
[25]
  Activity: Active
[26]
  Activity: Active; Compound Showed Similar Effect As Quality Control Polymyxin B
[27]
  Activity: Active
[28]
  fractional inhibitory concentration index (FICI): 0.312
[29]
  fractional inhibitory concentration index (FICI): 0.5
[30]
  fractional inhibitory concentration index (FICI): 0.562
[31]
  Activity: Non-toxic
[32]
  Activity: Non-toxic
[33]
  Activity: Non-toxic
[34]
  Activity: Non-toxic
